According to ChEMBL document CHEMBL5724914, “Linking interpersonal differences in gut microbiota composition and drug biotransformation activity” (2024):

Experiments:
[1] = (§1) The drug is tested on WLS-098 corresponding to human gut metagenome with ENA study accession number: PRJEB37062 and ENA sample accession number: ERS12561754 for biotransformation under anaerobic condition. The drug concentrations were measured over 9 timepoints collected between 0 and 24 hours of incubation by liquid-chromatography-coupled mass spectrometry (LC–MS); conditions: 2 µM
[2] = as §1, with “Z-004” for “WLS-098”, “to” for “to human gut”, “ERS12561804” for “ERS12561754”; conditions: 2 µM
[3] = human gut metagenome, 24 h, 2 µM
[4] = human gut metagenome, 24 h, 2 µM; remark: listed apart in the source
[5] = human gut metagenome, 24 h, 2 µM; remark: listed apart in the source
[6] = as §1, with “WLS-240” for “WLS-098”, “ERS12561773” for “ERS12561754”; conditions: 2 µM
[7] = as §1, with “WLS-220” for “WLS-098”, “ERS12561769” for “ERS12561754”; conditions: 2 µM
[8] = as §1, with “WLS-038” for “WLS-098”, “ERS12561745” for “ERS12561754”; conditions: 2 µM
[9] = as §1, with “Z-008” for “WLS-098”, “to” for “to human gut”, “ERS12561808” for “ERS12561754”; conditions: 2 µM
[10] = human gut metagenome, 24 h, 2 µM; remark: listed apart in the source
[11] = as §1, with “WLS-073” for “WLS-098”, “ERS12561749” for “ERS12561754”; conditions: 2 µM
[12] = human gut metagenome, 24 h, 2 µM; remark: listed apart in the source
[13] = human gut metagenome, 24 h, 2 µM; remark: listed apart in the source
[14] = human gut metagenome, 24 h, 2 µM; remark: listed apart in the source
[15] = human gut metagenome, 24 h, 2 µM; remark: listed apart in the source
[16] = as §1, with “WLS-007” for “WLS-098”, “ERS12561742” for “ERS12561754”; conditions: 2 µM
[17] = as §1, with “Z-010” for “WLS-098”, “to” for “to human gut”, “ERS12561810” for “ERS12561754”; conditions: 2 µM
[18] = human gut metagenome, 24 h, 2 µM; remark: listed apart in the source
[19] = human gut metagenome, 24 h, 2 µM; remark: listed apart in the source
[20] = as §1, with “Z-020” for “WLS-098”, “rabbit” for “human”, “ERS12561819” for “ERS12561754”; conditions: 2 µM
Also: call rule not given here.

Structure (SMILES)	Bacterial Biotransformation [1]	Bacterial Biotransformation [2]	Bacterial Biotransformation [3]	Bacterial Biotransformation [4]	Bacterial Biotransformation [5]	Bacterial Biotransformation [6]	Bacterial Biotransformation [7]	Bacterial Biotransformation [8]	Bacterial Biotransformation [9]	Bacterial Biotransformation [10]	Bacterial Biotransformation [11]	Bacterial Biotransformation [12]	Bacterial Biotransformation [13]	Bacterial Biotransformation [14]	Bacterial Biotransformation [15]	Bacterial Biotransformation [16]	Bacterial Biotransformation [17]	Bacterial Biotransformation [18]	Bacterial Biotransformation [19]	Bacterial Biotransformation [20]
CNCCC(Oc1ccc(C(F)(F)F)cc1)c1ccccc1 (stereo not given) [FLUOXETINE]	Compound NOT metabolized	Compound NOT metabolized	Compound NOT metabolized	Compound metabolized	Compound NOT metabolized	Compound metabolized	Compound NOT metabolized	Compound NOT metabolized	Compound NOT metabolized	Compound NOT metabolized	Compound NOT metabolized	Compound NOT metabolized	Compound metabolized	Compound NOT metabolized	Compound metabolized	Compound NOT metabolized	Compound NOT metabolized	Compound metabolized	Compound NOT metabolized	Compound NOT metabolized
CC[C@H](C)C(=O)O[C@H]1C[C@@H](C)C=C2C=C[C@H](C)[C@H](CC[C@@H]3C[C@@H](O)CC(=O)O3)[C@H]21 [LOVASTATIN]	Compound NOT metabolized	Compound NOT metabolized	Compound NOT metabolized	Compound NOT metabolized	Compound NOT metabolized	Compound NOT metabolized	Compound NOT metabolized	Compound NOT metabolized	Compound NOT metabolized	Compound NOT metabolized	Compound NOT metabolized	Compound NOT metabolized	Compound metabolized	Compound NOT metabolized	Compound NOT metabolized	Compound NOT metabolized	Compound NOT metabolized	Compound NOT metabolized	Compound NOT metabolized	Compound metabolized
CCOC(=O)[C@H](CCc1ccccc1)N[C@H]1CCc2ccccc2N(CC(=O)O)C1=O [BENAZEPRIL]	Compound metabolized	Compound metabolized	Compound metabolized	Compound metabolized	Compound metabolized	Compound metabolized	Compound metabolized	Compound metabolized	Compound metabolized	Compound metabolized	Compound metabolized	Compound metabolized	Compound metabolized	Compound metabolized	Compound metabolized	Compound metabolized	Compound metabolized	Compound metabolized	Compound metabolized	Compound metabolized
CCCCCOC(=O)Nc1nc(=O)n([C@@H]2O[C@H](C)[C@@H](O)[C@H]2O)cc1F [CAPECITABINE]	Compound metabolized	Compound metabolized	Compound metabolized	Compound metabolized	Compound metabolized	Compound metabolized	Compound metabolized	Compound metabolized	Compound NOT metabolized	Compound metabolized	Compound metabolized	Compound metabolized	Compound metabolized	Compound metabolized	Compound metabolized	Compound metabolized	Compound metabolized	Compound metabolized	Compound metabolized	Compound metabolized
CN(C)CC(c1ccc(O)cc1)C1(O)CCCCC1.O=C(O)CCC(=O)O (stereo not given) [DESVENLAFAXINE SUCCINATE]	Compound NOT metabolized	Compound NOT metabolized	Compound NOT metabolized	Compound NOT metabolized	Compound NOT metabolized	Compound NOT metabolized	Compound NOT metabolized	Compound NOT metabolized	Compound NOT metabolized	Compound NOT metabolized	Compound NOT metabolized	Compound NOT metabolized	Compound NOT metabolized	Compound NOT metabolized	Compound NOT metabolized	Compound NOT metabolized	Compound NOT metabolized	Compound NOT metabolized	Compound NOT metabolized	Compound NOT metabolized
CCCC(=O)Nc1ccc(OCC(O)CNC(C)C)c(C(C)=O)c1 (stereo not given) [ACEBUTOLOL]	Compound metabolized	Compound NOT metabolized	Compound NOT metabolized	Compound metabolized	Compound NOT metabolized	Compound metabolized	Compound NOT metabolized	Compound NOT metabolized	Compound NOT metabolized	Compound metabolized	Compound NOT metabolized	Compound metabolized	Compound metabolized	Compound metabolized	Compound metabolized	Compound NOT metabolized	Compound NOT metabolized	Compound metabolized	Compound metabolized	Compound NOT metabolized
Clc1ccc(Cn2c(CN3CCCC3)nc3ccccc32)cc1 [CLEMIZOLE]	Compound metabolized	Compound NOT metabolized	Compound metabolized	Compound metabolized	Compound metabolized	Compound metabolized	Compound NOT metabolized	Compound metabolized	Compound NOT metabolized	Compound metabolized	Compound NOT metabolized	Compound metabolized	Compound NOT metabolized	Compound metabolized	Compound NOT metabolized	Compound metabolized	Compound metabolized	Compound metabolized	Compound metabolized	Compound NOT metabolized
CCCCC1=NC2(CCCC2)C(=O)N1Cc1ccc(-c2ccccc2-c2nnn[nH]2)cc1 [IRBESARTAN]	Compound metabolized	Compound metabolized	Compound metabolized	Compound metabolized	Compound metabolized	Compound metabolized	Compound metabolized	Compound metabolized	Compound NOT metabolized	Compound metabolized	Compound metabolized	Compound metabolized	Compound NOT metabolized	Compound metabolized	Compound metabolized	Compound metabolized	Compound metabolized	Compound metabolized	Compound metabolized	Compound metabolized
